The values below come from publication PMC9822358, “New Structures, Spectrometric Quantification, and Inhibitory Properties of Cardenolides from Asclepias curassavica Seeds” (Molecules, 2022).

The term IC50 denotes the concentration that inhibits the measured activity by half.

The target in assay [1] is porcine Na^+/K^+-ATPase (purified NKA from S. domesticus cerebral cortex). In words: Na+/K+ ATPase (NKA) inhibitory activity assay (inorganic phosphate released from ATP, absorbance at 700 nm). It counts as biochemical. To be noted: unadapted NKA from Sus domesticus; read-out: IC50 against porcine NKA. On the procedure: We tested the inhibitory capacity of the new compounds 1 and 2 and the known cardenolides 5–10 against porcine NKA. We used an in vitro assay to determine the IC50 of each compound and used ouabain as a reference.
We quantified the NKA inhibitory activity of the isolated cardenolides using purified NKA from S. domesticus cerebral cortex (Sigma-Aldrich-A7510-5UN, Steinheim, Germany), following protocols standardized by Petschenka et al.. Briefly, porcine NKA was diluted in di-water to a final assay concentration of 0.01 U/mL. The ATPase was exposed to exponentially decreasing concentrations from 10^−3 to 10^−8 M of ouabain (Sigma-Aldrich, O3125-1G, Steinheim, Germany) or the cardenolides 1–2 and 5–10. […] The NKA activity after cardenolide exposure was determined by quantification of inorganic phosphate released from enzymatically hydrolysed ATP. The […] levels were measured by photometric determination, reading the absorbance at 700 nm with a microplate reader (BMG Clariostar, BMG Labtech, Germany). The absorbance of each reaction was corrected with the respective background, and the inhibition curves were plotted in R studio [61] with log10-transformed cardenolide concentration versus percent of uninhibited control, with top and bottom asymptotes set to 1 and 0, respectively. […] IC50 values for each cardenolide and ouabain were also calculated from the inhibition curves using R studio. […]

A further assay deals with porcine NKA. Further details: method as in PMID 33850021. The settings on record: cited from earlier work.

For the compound `C[C@H]1O[C@@H](O[C@H]2CC[C@@]3(C=O)[C@@H](CC[C@@H]4[C@@H]3CC[C@]3(C)[C@@H](C5=CC(=O)OC5)CC[C@]43O)C2)[C@H](O)[C@H](O)[C@@H]1O` [Compound 9, gofruside], the IC50 in assay [1] was determined as 96.5 nM.

As for `CC1CC(O)C2(O)OC3CC4(C=O)C(CCC5C4CCC4(C)C(C6=CC(=O)OC6)C(O)CC54O)CC3OC2O1` (stereo not drawn) [Compound 10, 16α-hydroxycalotropin], the IC50 in assay [1] was found to be 3670 nM.

With `C[C@@H]1C[C@H](O)[C@]2(O)O[C@@H]3C[C@@]4(C=O)[C@@H](CC[C@@H]5[C@@H]4CC[C@]4(C)[C@@H](C6=CC(=O)OC6)CC[C@]54O)C[C@H]3O[C@@H]2O1` [calotropin], the “log10 IC50 against porcine NKA” value in the assay on porcine NKA (log10 of IC50 in M) is recorded as −6.56. Moreover, in the assay with porcine NKA (read-out: IC50 against porcine NKA), the IC50 was 270 nM.
